Patent publication US20230096028A1, “BICYCLIC HETEROCYCLYL COMPOUNDS AND USES THEREOF” (Revolution Medicines, Inc., priority 2019, published 2023)
pIC50, pKd: −log10 of the molar value.

Columns and labels:
[1] = molecular target: T1, SOS1 catalytic domain (residues 564-1049) (Homo sapiens, UniProt Q07889); assay: Mode of Action Assay: inhibition of SOS1 nucleotide exchange activity (SOS1 TR-FRET IC50 Assay)
T1 sequence (Q07889 564-1049): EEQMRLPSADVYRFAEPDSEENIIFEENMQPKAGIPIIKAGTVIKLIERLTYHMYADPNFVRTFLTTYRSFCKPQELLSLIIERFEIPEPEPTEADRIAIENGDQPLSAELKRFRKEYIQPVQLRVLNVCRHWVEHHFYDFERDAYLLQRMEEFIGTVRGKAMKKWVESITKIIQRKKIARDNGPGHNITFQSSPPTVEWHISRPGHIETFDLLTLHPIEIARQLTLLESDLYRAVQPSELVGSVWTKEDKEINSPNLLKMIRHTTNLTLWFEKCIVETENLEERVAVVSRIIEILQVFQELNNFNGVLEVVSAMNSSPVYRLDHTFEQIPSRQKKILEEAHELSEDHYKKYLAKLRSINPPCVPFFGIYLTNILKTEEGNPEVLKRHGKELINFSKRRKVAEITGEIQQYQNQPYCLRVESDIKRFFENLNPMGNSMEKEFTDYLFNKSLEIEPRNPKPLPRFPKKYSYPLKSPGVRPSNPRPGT

[2] = molecular target: T1, SOS1 catalytic domain (residues 564-1049); assay: Potency Assay: binding affinity to SOS1 using Surface Plasmon Resonance (SPR); design: SOS1 catalytic domain (residues 564-1049) immobilized on a sensor chip; details: immobilized SOS1 catalytic domain (residues 564-1049), read-out: SOS1 SPR Equilibrium Kd
In short: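 Avi-tagged SOS1 catalytic domain captured on streptavidin chip (~6000 RU) in 0.01 M HEPES, 0.15 M NaCl, 0.05% P20. Compound dilution series flowed at 50 μL/min for association, then buffer for dissociation, with double reference subtraction. Kd derived from end-of-association binding response plotted against concentration.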

[3] = test system: PC-9 cells (EGFR Ex19Del); assay: Potency Assay: pERK (SOS1 pERK IC50 Assay, AlphaLISA SureFire Ultra p-ERK1/2); assay type: cell-based; details: Homo sapiens; PC-9 cells (EGFR Ex19Del), 1 hour incubation, AlphaLISA p-ERK1/2; read-out: SOS1 pERK IC50
In short: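 PC-9 (EGFR Ex19Del) cells plated overnight, then treated 1 h at 37° C. with 10-point 3-fold dilutions (top 10 μM final) in duplicate. Lysate pERK1/2 measured by AlphaLISA SureFire Ultra; IC50 from 4-parameter sigmoidal fit.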

Compound | pIC50 [1] | pKd [2] | pIC50 [3]
C[C@@H](Nc1nc(Cl)nc2c1CN(C(=O)N1CCS(=O)(=O)CC1)C2)c1cc(N)cc(C(F)(F)F)c1 [Example 148] | > 6.00 | > 6.40 | > 6.00
C[C@@H](Nc1nc(Cl)nc2c1CC(C(=O)N1CCOCC1)CC2)c1cc(N)cc(C(F)(F)F)c1 (stereo partly drawn) [Example 165, N-[(1R)-1-[3-amino-5-(trifluoromethyl)phenyl]ethyl]-2-chloro-6-(morpholine-4-carbonyl)-5,6,7,8-tetrahydroquinazolin-4-amine] | > 6.00 | > 6.40 | > 6.00
COC1(C(=O)N2Cc3nc(Cl)nc(N[C@H](C)c4cccc(C(F)(F)CO)c4)c3C2)CCOCC1 [Example 167, [2-chloro-4-[[(1R)-1-[3-(1,1-difluoro-2-hydroxy-ethyl)phenyl]ethyl]amino]-5,7-dihydropyrrolo[3,4-d]pyrimidin-6-yl]-(4-methoxytetrahydropyran-4-yl)methanone] | > 6.00 | > 6.40 | > 6.00
C[C@@H](Nc1nc(Cl)nc2c1CN(S(=O)(=O)N1CC3CCC(C1)O3)CC2)c1cc(N)cc(C(F)(F)F)c1 [Example 180] | > 6.00 | > 6.40 | > 6.00
C[C@@H](Nc1nc(Cl)nc2c1CN(S(=O)(=O)N1CCNCC1)CC2)c1cc(N)cc(C(F)(F)F)c1 [Example 183] | > 6.00 | > 6.40 | > 6.00
C[C@@H](Nc1nc(Cl)nc2c1CN(S(=O)(=O)N1CCOCC1)CC2)c1cccc(C(F)(F)F)c1 [Example 185] | > 6.00 | < 6.40 | < 6.00
C[C@@H](Nc1nc(Cl)nc2c1CN(C(=O)[C@@H]1C[C@@H]1C#N)CC2)c1cc(N)cc(C(F)(F)F)c1 [Example 205] | < 6.00 | > 6.40 | > 6.00
C[C@@H](Nc1nc(Cl)nc2c1CN(C(=O)C13COC(C1)C3)CC2)c1cc(N)cc(C(F)(F)F)c1 [Example 212] | < 6.00 | < 6.40 | > 6.00
C[C@@H](Nc1nc(Cl)nc2c1CN(C(=O)C1CC1)CC2)c1cc(N)cc(C(F)(F)F)c1 [Example 219] | > 6.00 | > 6.40 | > 6.00
COC(=O)N1C[C@@H]2COC[C@]2(C(=O)N2CCc3nc(Cl)nc(N[C@H](C)c4cc(N)cc(C(F)(F)F)c4)c3C2)C1 [Example 221] | > 6.00 | < 6.40 | < 6.00
C[C@@H](Nc1nc(Cl)nc2c1CN(C(=O)[C@@H]1C[C@H]1C#N)CC2)c1cc(N)cc(C(F)(F)F)c1 [Example 223] | > 6.00 | > 6.40 | > 6.00
COC1(C(=O)N2Cc3nc(Cl)nc(N[C@H](C)c4cccc(C(F)(F)F)c4)c3C2)CCOCC1 [Example 227] | > 6.00 | > 6.40 | > 6.00
COc1nccnc1C(=O)N1CCc2nc(Cl)nc(N[C@H](C)c3cc(N)cc(C(F)(F)F)c3)c2C1 [Example 231] | < 6.00 | < 6.40 | < 6.00
COc1cccnc1C(=O)N1CCc2nc(Cl)nc(N[C@H](C)c3cc(N)cc(C(F)(F)F)c3)c2C1 [Example 232] | < 6.00 | < 6.40 | < 6.00
C[C@@H](Nc1nc(Cl)nc2c1CN(C(=O)c1ccncn1)CC2)c1cc(N)cc(C(F)(F)F)c1 [Example 233] | < 6.00 | < 6.40 | < 6.00
C[C@@H](Nc1nc(Cl)nc2c1CN(C(=O)c1cccnn1)CC2)c1cc(N)cc(C(F)(F)F)c1 [Example 235] | > 6.00 | < 6.40 | < 6.00
COC1(C(=O)N2Cc3nc(C)nc(N[C@H](C)c4cccc(C(F)(F)CO)c4)c3C2)CCOCC1 [Example 239] | > 6.00 | > 6.40 | < 6.00
C[C@@H](Nc1nc(Cl)nc2c1CN(C(=O)C1(C)CCOCC1)C2)c1cccc(C(F)(F)CO)c1 [Example 240] | > 6.00 | > 6.40 | > 6.00
C[C@@H](Nc1nc(Cl)nc2c1CN(C(=O)c1cnccn1)CC2)c1cc(N)cc(C(F)(F)F)c1 [Example 246] | < 6.00 | < 6.40 | < 6.00
C[C@@H](Nc1nc(Cl)nc2c1CN(C(=O)c1ccccn1)CC2)c1cc(N)cc(C(F)(F)F)c1 [Example 247] | < 6.00 | < 6.40 | < 6.00

The next lines start with the values.

pIC50 [1] | pKd [2] | pIC50 [3] | Compound
> 6.00 | > 6.40 | > 6.00 | C[C@@H](Nc1nc(Cl)nc2c1CN(C(=O)N1CCOC(c3ccncc3)C1)C2)c1cc(N)cc(C(F)(F)F)c1 (stereo partly drawn) [Example 145]
> 6.00 | > 6.40 | > 6.00 | C[C@@H]1CN(C(=O)N2Cc3nc(Cl)nc(N[C@H](C)c4cc(N)cc(C(F)(F)F)c4)c3C2)C[C@H](C)N1 [Example 146]
> 6.00 | > 6.40 | > 6.00 | C[C@@H](Nc1nc(Cl)nc2c1CN(C(=O)N1CCOc3cccnc31)C2)c1cc(N)cc(C(F)(F)F)c1 [Example 160]
> 6.00 | > 6.40 | > 6.00 | C[C@@H](Nc1nc(Cl)nc2c1CN(C(=O)N1CCOCC1)C2)c1cccc(C(F)(F)CO)c1 [Example 168, [2-chloro-4-[[(1R)-1-[3-(1,1-difluoro-2-hydroxy-ethyl)phenyl]ethyl]amino]-5,7-dihydropyrrolo[3,4-d]pyrimidin-6-yl]-morpholino-methanone]
> 6.00 | > 6.40 | > 6.00 | CC(Nc1nc(Cl)nc2c1CN(C(=O)N1CCOCC1)C2)c1cccc(C(F)(F)CO)c1 (stereo not drawn) [Example 171, [2-chloro-4-[1-[3-(1,1-difluoro-2-hydroxy-ethyl)phenyl]ethylamino]-5,7-dihydropyrrolo[3,4-d]pyrimidin-6-yl]-morpholino-methanone]
> 6.00 | > 6.40 | > 6.00 | COC1CCN(S(=O)(=O)N2CCc3nc(Cl)nc(N[C@H](C)c4cc(N)cc(C(F)(F)F)c4)c3C2)CC1 [Example 179]
> 6.00 | > 6.40 | > 6.00 | C[C@@H](Nc1nc(Cl)nc2c1CN(S(=O)(=O)N1CCOCC1)CC2)c1cccc(C(F)(F)CO)c1 [Example 181]
> 6.00 | > 6.40 | > 6.00 | C[C@@H](Nc1nc(Cl)nc2c1CN(S(=O)(=O)N1CCN(C)CC1)CC2)c1cc(N)cc(C(F)(F)F)c1 [Example 184]
< 6.00 | > 6.40 | < 6.00 | C[C@@H](Nc1nc(Cl)nc2c1CN(C(=O)C13CC(O)(C1)C3)CC2)c1cc(N)cc(C(F)(F)F)c1 [Example 193]
< 6.00 | < 6.40 | > 6.00 | C[C@@H](Nc1nc(Cl)nc2c1CN(C(=O)C1(C#N)CC1)CC2)c1cc(N)cc(C(F)(F)F)c1 [Example 194]
< 6.00 | < 6.40 | < 6.00 | C[C@@H](Nc1nc(Cl)nc2c1CN(C(=O)[C@@]13COC[C@@H]1CN(S(C)(=O)=O)C3)CC2)c1cc(N)cc(C(F)(F)F)c1 [Example 222]
> 6.00 | > 6.40 | > 6.00 | C[C@@H](Nc1nc(Cl)nc2c1CN(C(=O)C1(CO)COC1)CC2)c1cc(N)cc(C(F)(F)F)c1 [Example 225]
< 6.00 | > 6.40 | < 6.00 | C[C@@H](Nc1nc(Cl)nc2c1CN(C(=O)C1(O)COC1)CC2)c1cc(N)cc(C(F)(F)F)c1 [Example 226]
> 6.00 | > 6.40 | < 6.00 | C[C@@H](Nc1nc(Cl)nc2c1CN(C(=O)c1ccnnc1)CC2)c1cc(N)cc(C(F)(F)F)c1 [Example 228]
< 6.00 | < 6.40 | < 6.00 | COc1cc(C(=O)N2CCc3nc(Cl)nc(N[C@H](C)c4cc(N)cc(C(F)(F)F)c4)c3C2)nc(OC)n1 [Example 229]
< 6.00 | < 6.40 | < 6.00 | COc1nccc(C(=O)N2CCc3nc(Cl)nc(N[C@H](C)c4cc(N)cc(C(F)(F)F)c4)c3C2)n1 [Example 234]
< 6.00 | < 6.40 | < 6.00 | C[C@@H](Nc1nc(Cl)nc2c1CN(C(=O)c1ncccn1)CC2)c1cc(N)cc(C(F)(F)F)c1 [Example 236]
< 6.00 | < 6.40 | < 6.00 | C[C@@H](Nc1nc(Cl)nc2c1CN(C(=O)c1cc(N3CCOCC3)ccn1)CC2)c1cc(N)cc(C(F)(F)F)c1 [Example 238]
> 6.00 | > 6.40 | > 6.00 | COC1(C(=O)N2Cc3nc(Cl)nc(N[C@H](C)c4cccc(C(F)(F)CO)c4)c3C2)COC1 [Example 241]
